This is an account of results in US12435087B2, “Modulators of DCN-1 and methods of use thereof” (Cellarity, Inc., priority 2023, dated 2025).

The target in experiment [1] is DCN1 (DCUND1) protein PONY domain (Homo sapiens (Human), UniProt Q96GG9). Nature of the experiment: Off-rate measurement of reversible covalent molecules (jump dilution TR-FRET with Cy5 probe). The following applies: binding mode from off-rate measurement. As to the method: A TR-FRET assay was performed to classify the compounds as an irreversible covalent binder, a reversible covalent binder or a reversible binder.
DCN1 (DCUND1) protein PONY domain, sequence (Q96GG9 60-248): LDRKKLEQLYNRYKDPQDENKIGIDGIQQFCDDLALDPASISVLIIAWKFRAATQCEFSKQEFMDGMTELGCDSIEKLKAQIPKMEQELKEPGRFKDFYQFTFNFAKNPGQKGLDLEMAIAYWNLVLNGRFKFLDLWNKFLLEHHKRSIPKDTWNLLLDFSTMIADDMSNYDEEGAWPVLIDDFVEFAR
An assay to measure the off-rate of reversible covalent molecules was developed. A typical covalent compound is assumed to stay bound to a protein for at least the life of that protein in the cell. In reality, there is a range of how long a covalent compounds remains bound before a reverse reaction takes place. Thus, some covalent bonds can be labeled as reversible as their reverse reaction takes place in a measurable amount of time under physiological conditions. The assay capitalizes on the range of covalent binders by using a high affinity covalent binder as a probe to displace the more reversible binders in an adaptation of the jump dilution method.
In this version of the jump dilution method, the increase in covalent probe binding over time was measured through a TR-FRET reaction between the covalent probe and the biotinylated target protein.
The recombinant form of the DCN1 (DCUND1) protein PONY domain was produced using an E. coli expression system at Viva Biotech (China). The DCN1 protein was biotinylated (EZ sulfo-NHS-LC-biotin; Thermofisher) for labeling with streptavidin terbium (Tb) cryptate in the reaction. This biotinylated protein was used in two forms of the TR-FRET assay as described below.
The off-rate measurement is executed in two steps based on the jump dilution method. […] The greatest dilution allowed within the constraints of the assay was chosen. These factors allow a competitive advantage for the covalent probe to replace the test compound when that compound releases from the target protein. The actual measure is the rate of increased TR-FRET signal as the covalent probe replaces the test compound over time. […] The resulting time dependent curve of the TR-FRET signal is fit to the following equation: Y=Y0+(Plateau−Y0)*(1−exp(−K*x))
K is the rate constant (1/unit of time). The residence time is defined as the inverse of K, the rate constant. The half-life is calculated as ln(2)/K.

The target of experiment [2] is DCN2 (DCUND2) protein PONY domain (Homo sapiens (Human), UniProt Q6PH85). Description: DCN2 TR-FRET assay, measurement of Kinact/KI. Format: binding. As to the method:
A TR-FRET Assay was performed to evaluate the ability of the compounds to bind DCN-2. The time resolved—Forster's resonance energy transfer (TR-FRET) assay was designed following the protocol established in (Scott et al., Nat Chem Biol. 2017 August; 13(8): 850-857). A recombinant form of the DCN2 (DCUND2) protein PONY domain was produced using an E. coli expression system at Viva Biotech China. The DCN2 protein was biotinylated (EZ sulfo-NHS-LC-biotin; Thermofisher) for labeling with 2.5 nM streptavidin terbium (Tb) cryptate in the reaction. The probe was changed to a non-covalent DCN1 inhibitor labeled with carboxyfluorescein (FAM; Zhou el al., Nat Commun. 2017; 8: 1150). Buffer conditions were modified to enhance protein stability by replacing TritonX with 0.05% Tween20 and increasing NaCl to 200 mM. […] The Kinact and KI measurements were taken to allow for continuous reads over 24 hrs. Plates were read every 5 min up to 1 hr, every 15 min up to 5 hr, and every hour up to 10 hours. Kinact and KI were calculated based on the following equations (Krippendorff B F, et al. Mechanism-based inhibition: deriving K(I) and k(inact) directly from time-dependent IC(50) values. J BiomolScreen. 2009; Mons E et al. A Comprehensive Guide for Assessing Covalent Inhibition in Enzymatic Assays Illustrated with Kinetic Simulations. […] The Kinact and KI values could be estimated from the tight curves of the IC50 values over time. [formula]
Background: TR-FRET usually uses a lanthanide donor and a delayed reading to cut background.

DCN2 (DCUND2) protein PONY domain, sequence (Q6PH85 60-248): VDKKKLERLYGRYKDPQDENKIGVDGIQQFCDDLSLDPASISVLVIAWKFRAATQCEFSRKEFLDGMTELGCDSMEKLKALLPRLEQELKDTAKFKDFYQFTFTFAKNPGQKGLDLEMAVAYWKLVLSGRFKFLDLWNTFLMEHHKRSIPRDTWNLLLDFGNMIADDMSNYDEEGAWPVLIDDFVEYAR

In general, Ki refers to the equilibrium dissociation constant of an inhibitor or competing ligand from its target. A high value points to a looser hold on the target. Broadly, the kinact is the rate constant of inactivation at saturating inhibitor. A word on the kinact/KI: it is the second-order rate constant of inactivation. `C=C(CN1CCOCC1)C(=O)Nc1cccc([C@@H]2c3c(C)nn(-c4ccccc4)c3N(CC)C(=O)[C@H]2NC(=O)c2cccc(C(F)(F)F)c2)c1` [Compound I-2, N-((4R,5S)-7-ethyl-3-methyl-4-(3-(2-(morpholinomethyl)acrylamido)phenyl)-6-oxo-1-phenyl-4,5,6,7-tetrahydro-1H-pyrazolo[3,4-b]pyridin-5-yl)-3-(trifluoromethyl)benzamide]: in experiment [1], the Category result is listed as “irreversible”. For the same compound, in experiment [2], the Ki was over 0.5 nM, the inactivation rate constant (kinact) fell in the range of 0.00333 to 0.005 s⁻¹ and the kinact/KI fell in the range of 3.33e+06 to 8.33e+06 M⁻¹ s⁻¹.
In the same order, the values of `C/C=C(\CN1CCN(C2COC2)CC1)C(=O)Nc1cccc([C@@H]2c3cnn(-c4ccccc4)c3N(CC)C(=O)[C@H]2NC(=O)c2csc(C(F)(F)F)n2)c1` [Compound I-234, N-((4R,5S)-7-ethyl-4-(3-((E)-2-((4-(oxetan-3-yl)piperazin-1-yl)methyl)but-2-enamido)phenyl)-6-oxo-1-phenyl-4,5,6,7-tetrahydro-1H-pyrazolo[3,4-b]pyridin-5-yl)-2-(trifluoromethyl)thiazole-4-carboxamide] are “irreversible”, over 0.5 nM, 0.00167 to 0.00333 s⁻¹ and 167000 to 3.33e+06 M⁻¹ s⁻¹.
